Here are results for 5 compounds from BindingDB's records for doi:10.1016/0197-0186(94)90100-7 (Rowett Research Institute, 1994).

pKi: −log10 of the molar value. Bounds are passed on as bounds.

For this assay, the target named is T1, Melatonin receptor (Oryctolagus cuniculus, UniProt Q9BE38).
T1 sequence (Q9BE38 whole entry): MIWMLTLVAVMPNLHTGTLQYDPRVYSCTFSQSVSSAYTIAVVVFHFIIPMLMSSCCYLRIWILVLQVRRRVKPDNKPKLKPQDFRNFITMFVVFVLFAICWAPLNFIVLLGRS

By pKi is commonly meant the negative decadic logarithm of the Ki, by convention in mol/L. On to `COc1ccc2[nH]cc(CCO)c2c1`, for which the pKi is under 5.00. Then `CC(=O)NCCc1c[nH]c2ccccc12` [N-Acetyltryptamine], with 5.80; and `COc1cc2[nH]cc(CCNC(C)=O)c2cc1OC` [melatonin, 6-Methoxy], with 6.34. Then `COc1cc2c(CCNC(C)=O)c[nH]c2cc1O` [melatonin, 6-Hydroxy], with 7.13; and `CC(=O)NCCc1c[nH]c2ccc(O)cc12` [N-Acetyltryptamine,5-Hydroxy], with 5.52.
